These results are taken from PubChem BioAssay (NCI).

Among the test systems are UACC-257 melanoma; M14 melanoma; RXF 393 renal; HCC-2998 colon; CCRF-CEM leukemia; A549 NSCLC; SW-620 colon; ACHN renal; PC-3 prostate; CAKI-1 renal.
What all share (experiment): inhibition of tumour cell growth, NCI panel, 48 h

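Growth conditions: 96-well plates. Treatment: test compound, 48 hours, 5 concentrations. Analysis: linear interpolation between bracketing concentrations; unreached endpoints set to highest concentration. The concentration for 50% growth inhibition is given as GI50. TGI denotes the concentration required for complete inhibition of growth.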

`COc1cc(/C=C/C(=O)c2cccnc2Nc2ccc(F)cc2)cc(OC)c1OC`: the GI50 was 2.9 µM in the experiment on UACC-257 melanoma; 3.19 µM with M14 melanoma; 2.81 µM with RXF 393 renal; 1.78 µM in the experiment with HCC-2998 colon; 2.45 µM in the experiment on CCRF-CEM leukemia; 2.66 µM in the experiment on A549 NSCLC. Besides, the GI50 is 3.3 µM in the experiment on SW-620 colon, 2.84 µM in the experiment with ACHN renal, 3.95 µM in the experiment on PC-3 prostate and 3.68 µM in the experiment on CAKI-1 renal. The TGI in the experiment on UACC-257 melanoma came out at 21.6 µM; in the experiment with M14 melanoma, 9.94 µM; with RXF 393 renal, 8.97 µM; in the experiment with HCC-2998 colon, 3.45 µM; with CCRF-CEM leukemia it was 9.87 µM; in the experiment on A549 NSCLC, 11.5 µM. Also, the TGI in the experiment with SW-620 colon worked out at 24.1 µM; with ACHN renal it was 7.2 µM; with PC-3 prostate it was 20 µM; in the experiment with CAKI-1 renal, 39.5 µM.

Consider `Cc1cccc2c(N)c3ccccc3nc12`, for which the GI50 with UACC-257 melanoma was 1.87 µM; in the experiment with M14 melanoma, 1.87 µM; with RXF 393 renal it was 1.36 µM; in the experiment with HCC-2998 colon, 1.24 µM; with CCRF-CEM leukemia, 2.54 µM; in the experiment on A549 NSCLC, 1.02 µM. For the same compound, the GI50 with SW-620 colon is 0.699 µM; in the experiment with ACHN renal, 0.561 µM; in the experiment with PC-3 prostate, 2.32 µM; in the experiment on CAKI-1 renal, 0.966 µM. Further, the TGI in the experiment with UACC-257 melanoma turned out to be 3.63 µM; in the experiment on M14 melanoma, 5.19 µM; in the experiment with RXF 393 renal, 3.72 µM; with HCC-2998 colon, 4.35 µM; in the experiment on CCRF-CEM leukemia it was 10.2 µM; in the experiment on A549 NSCLC it was 4.02 µM. Besides, the TGI is 11.9 µM with SW-620 colon, 14.5 µM in the experiment on ACHN renal, 8.17 µM with PC-3 prostate and 11.6 µM in the experiment with CAKI-1 renal.

On to `COc1ccc(Nc2cc(C)nc(N3CCN(c4ccnc5cc(Cl)ccc45)CC3)n2)cc1`, for which the GI50 with UACC-257 melanoma is 3.34 µM; in the experiment on M14 melanoma it was 1.75 µM; in the experiment on RXF 393 renal it was 2.79 µM; with HCC-2998 colon, 3.24 µM; in the experiment on CCRF-CEM leukemia, 2.85 µM; in the experiment with A549 NSCLC, 2 µM. For the same compound, the figures for the GI50 in the experiment on SW-620 colon, with PC-3 prostate and in the experiment on CAKI-1 renal were 2.73 µM, 2.21 µM and 2.71 µM, respectively. In addition, the TGI in the experiment on UACC-257 melanoma is above 100 µM; in the experiment on M14 melanoma, 5.32 µM; with RXF 393 renal, 21 µM; with HCC-2998 colon, 11.6 µM; in the experiment with CCRF-CEM leukemia, above 100 µM; in the experiment on A549 NSCLC, above 100 µM. For the same compound, the TGI in the experiment with SW-620 colon is 13.2 µM; in the experiment with PC-3 prostate it was above 100 µM; with CAKI-1 renal, above 100 µM.

Take `NCCSCCc1ccccc1`: the TGI with UACC-257 melanoma, in the experiment on M14 melanoma, in the experiment on RXF 393 renal, in the experiment with HCC-2998 colon, in the experiment on A549 NSCLC and in the experiment on SW-620 colon was above 100 µM throughout. The TGI with ACHN renal, with PC-3 prostate and in the experiment with CAKI-1 renal was above 100 µM each time.

In the case of `COC(=O)[C@@H](C)C[C@H](Cc1ccccc1)NC(=O)c1csc([C@@H](C[C@H](C(C)C)N(C)C(=O)[C@H](C)NC(=O)[C@H]2CCCCN2C)OC(C)=O)n1`, the GI50 with UACC-257 melanoma is above 25 µM; with M14 melanoma it was 0.859 µM; in the experiment on RXF 393 renal, 1 µM; in the experiment with HCC-2998 colon it was 1.75 µM; in the experiment on CCRF-CEM leukemia it was 1.05 µM; in the experiment on A549 NSCLC, 8.67 µM. Besides, the GI50 in the experiment with SW-620 colon was 0.861 µM; with PC-3 prostate, 0.821 µM. In addition, the TGI in the experiment with UACC-257 melanoma was above 25 µM; in the experiment on M14 melanoma, 11.3 µM; in the experiment on RXF 393 renal, 24.2 µM; in the experiment with HCC-2998 colon, above 25 µM; in the experiment with CCRF-CEM leukemia it was above 25 µM; in the experiment with A549 NSCLC it was above 25 µM. Further, the TGI in the experiment on SW-620 colon and in the experiment with PC-3 prostate was above 25 µM each time.

On to `CC(Br)C(=O)Nc1ccc(C(=O)O)c(O)c1` (stereo not given), for which the TGI in the experiment with UACC-257 melanoma is above 100 µM; in the experiment on M14 melanoma, above 100 µM; in the experiment on RXF 393 renal, above 100 µM; in the experiment on CCRF-CEM leukemia, 43.6 µM; in the experiment with A549 NSCLC, above 100 µM; with SW-620 colon, above 100 µM. In addition, the TGI in the experiment on ACHN renal, in the experiment with PC-3 prostate and in the experiment with CAKI-1 renal was above 100 µM throughout.

For `Oc1ccc(Cl)cc1CNc1nc2ccccc2[nH]1`, the GI50 with UACC-257 melanoma was 14.7 µM; in the experiment on RXF 393 renal it was 10.3 µM; in the experiment on HCC-2998 colon, 16.5 µM; in the experiment on CCRF-CEM leukemia, 17.9 µM; with A549 NSCLC, 12.7 µM; with SW-620 colon, 15.5 µM. For the same compound, the results for the GI50 in the experiment with ACHN renal, in the experiment with PC-3 prostate and with CAKI-1 renal were 13.8 µM, 9.75 µM and 11.4 µM, respectively. The TGI turned out to be 29.4 µM in the experiment on UACC-257 melanoma; 23.9 µM in the experiment with RXF 393 renal; 32 µM in the experiment on HCC-2998 colon; 88.5 µM with CCRF-CEM leukemia; 30.2 µM in the experiment on A549 NSCLC; 31.9 µM in the experiment with SW-620 colon. For the same compound, the TGI is 35.8 µM in the experiment with ACHN renal, 23.3 µM in the experiment with PC-3 prostate and 28.1 µM in the experiment with CAKI-1 renal.

With `c1ccc(CNc2nc(Nc3ccccc3)nc3ccccc23)cc1`, the GI50 in the experiment on UACC-257 melanoma is 1.78 µM; with M14 melanoma it was 1.83 µM; with RXF 393 renal, 1.65 µM; with HCC-2998 colon, 1.99 µM; with CCRF-CEM leukemia, 2.13 µM; with A549 NSCLC, 1.84 µM. In addition, the GI50 was 1.87 µM with ACHN renal, 1.66 µM in the experiment with PC-3 prostate and 2.04 µM with CAKI-1 renal. Besides, the TGI was found to be 3.78 µM in the experiment on UACC-257 melanoma; 3.6 µM with M14 melanoma; 3.2 µM in the experiment with RXF 393 renal; 4.43 µM with HCC-2998 colon; 6 µM in the experiment on CCRF-CEM leukemia; 5.35 µM with A549 NSCLC. For the same compound, the results for the TGI in the experiment with ACHN renal, in the experiment with PC-3 prostate and with CAKI-1 renal were 4.16 µM, 4.9 µM and 5.18 µM, respectively.

On to `CCn1c2ccccc2c2cc(C(O)c3cccc4ncccc34)ccc21` (stereo not given), for which the GI50 is 0.0468 µM with M14 melanoma; 0.0518 µM in the experiment with RXF 393 renal; 0.257 µM with HCC-2998 colon; 0.0484 µM in the experiment on CCRF-CEM leukemia; 0.0684 µM in the experiment with A549 NSCLC; 0.0399 µM with SW-620 colon. Also, the values for the GI50 in the experiment with ACHN renal, in the experiment on PC-3 prostate and in the experiment with CAKI-1 renal were 0.0715 µM, 0.0413 µM and 0.0425 µM, respectively. Besides, the TGI was above 100 µM with M14 melanoma; 15.7 µM in the experiment on HCC-2998 colon; above 100 µM in the experiment on CCRF-CEM leukemia; above 49.4 µM in the experiment on A549 NSCLC; above 100 µM with SW-620 colon; 41.9 µM in the experiment on ACHN renal. Besides, the TGI in the experiment with PC-3 prostate was above 85.7 µM; with CAKI-1 renal, above 100 µM.
